Results reported in ChEMBL document CHEMBL1127869, “Angiotensin II receptor antagonists: imidazoles and pyrroles bearing hydroxymethyl and carboxy substituents” (Bioorg Med Chem Lett, 1994).

Experiments:
[1] = target: T1, Type-1 angiotensin II receptor (Bos taurus, UniProt P25104); experiment: Inhibition of [125l]-All binding to bovine adrenal cortex; type: tissue-based
T1 sequence (P25104 whole entry): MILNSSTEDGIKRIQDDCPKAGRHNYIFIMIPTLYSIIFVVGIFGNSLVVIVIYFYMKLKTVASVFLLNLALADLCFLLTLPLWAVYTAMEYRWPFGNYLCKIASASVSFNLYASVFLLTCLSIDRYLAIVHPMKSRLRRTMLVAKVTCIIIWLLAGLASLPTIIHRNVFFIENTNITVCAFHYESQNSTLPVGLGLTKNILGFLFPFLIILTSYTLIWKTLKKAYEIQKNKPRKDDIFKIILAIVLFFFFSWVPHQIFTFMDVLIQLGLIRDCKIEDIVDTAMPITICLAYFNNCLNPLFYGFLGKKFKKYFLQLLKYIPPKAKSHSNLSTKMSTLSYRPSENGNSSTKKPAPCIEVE

Rattus norvegicus = experiment: Compound tested for in vivo inhibitory dose against All-induced pressor response in normotensive, conscious rats; type: functional; details: read-out: ID50 (the source's name)

Row | SMILES | IC50 [1] | ED50 (Rattus norvegicus)
1 | CCCCc1nc(Cl)c(CO)n1Cc1ccc(-c2ccccc2C(=O)O)cc1 | 490 nM | 2.3 mg/kg
2 | CCCCc1nc(CO)c(C(=O)O)n1Cc1ccc(-c2ccccc2C(=O)O)cc1 | 65 nM | 0.22 mg/kg
3 | CCCc1nc(C(=O)O)c(C(=O)O)n1Cc1ccc(-c2ccccc2C(=O)O)cc1 | 320 nM | 0.67 mg/kg
4 | CCCc1nc(CO)c(C(=O)O)n1Cc1ccc(-c2ccccc2C(=O)O)cc1 | 58 nM | 0.069 mg/kg
5 | CCCc1nc(CO)c(C(=O)OCC)n1Cc1ccc(-c2ccccc2C(=O)O)cc1 | 840 nM | 1.5 mg/kg
6 | CCCCc1nc(Cl)c(C(=O)O)n1Cc1ccc(-c2ccccc2C(=O)O)cc1 |  | 0.21 mg/kg
7 | CCc1nc(CO)c(C(=O)O)n1Cc1ccc(-c2ccccc2C(=O)O)cc1 | 150 nM | 0.27 mg/kg
8 | CCCc1cc(COC)c(C(=O)O)n1Cc1ccc(-c2ccccc2C(=O)O)cc1 | 4500 nM | 4.2 mg/kg
9 | CCCc1nc(CO)c(CO)n1Cc1ccc(-c2ccccc2C(=O)O)cc1 | 2700 nM | 2.1 mg/kg
10 | CCCc1nc(C(=O)O)c(CO)n1Cc1ccc(-c2ccccc2C(=O)O)cc1 |  | 8.8 mg/kg
11 | CCCc1cc(C(=O)O)c(CO)n1Cc1ccc(-c2ccccc2C(=O)O)cc1 | 2100 nM | 5.9 mg/kg
12 | CCCCc1nc(Cl)c(C(=O)O)n1Cc1ccc(-c2ccccc2-c2nn[nH]n2)cc1 [CARBOXYLIC ACID METABOLITE] | 22 nM | 0.1 mg/kg
13 | CCCCc1nc(Cl)c(CO)n1Cc1ccc(-c2ccccc2-c2nnn[nH]2)cc1 [LOSARTAN] | 120 nM | 0.3 mg/kg
